Values of other authors as cited in patent US20080286341A1, “Buffered coated nicotine containing products” (priority 2007, published 2008).

Key:
[1] = from Handbook of Chemistry and Physics, 85th edition
[2] = smoking a cigarette

| Compound | pKa value (in interval 8.0-9.6) [1] | time to reach the brain after inhalation [2] |
| --- | --- | --- |
| NC(=O)C[C@H](N)C(=O)O [Aspargine] | 8.73 |  |
| CN1CCCC1c1cccnc1 (centres unmarked) [nicotine, 3-(1-methyl-2-pyrrolidinyl)-pyridine] |  | ten |
